The values below come from patent US6329189A, “Enzyme producing tartaric acid ether compound and process for producing tartaric acid ether compounds using this enzyme” (Kikkoman Corporation, priority 1998, dated 2001).

Data set [1] deals with T1, histidine decarboxylase (HDC) (Homo sapiens, UniProt P19113).
T1 sequence (P19113 1-662): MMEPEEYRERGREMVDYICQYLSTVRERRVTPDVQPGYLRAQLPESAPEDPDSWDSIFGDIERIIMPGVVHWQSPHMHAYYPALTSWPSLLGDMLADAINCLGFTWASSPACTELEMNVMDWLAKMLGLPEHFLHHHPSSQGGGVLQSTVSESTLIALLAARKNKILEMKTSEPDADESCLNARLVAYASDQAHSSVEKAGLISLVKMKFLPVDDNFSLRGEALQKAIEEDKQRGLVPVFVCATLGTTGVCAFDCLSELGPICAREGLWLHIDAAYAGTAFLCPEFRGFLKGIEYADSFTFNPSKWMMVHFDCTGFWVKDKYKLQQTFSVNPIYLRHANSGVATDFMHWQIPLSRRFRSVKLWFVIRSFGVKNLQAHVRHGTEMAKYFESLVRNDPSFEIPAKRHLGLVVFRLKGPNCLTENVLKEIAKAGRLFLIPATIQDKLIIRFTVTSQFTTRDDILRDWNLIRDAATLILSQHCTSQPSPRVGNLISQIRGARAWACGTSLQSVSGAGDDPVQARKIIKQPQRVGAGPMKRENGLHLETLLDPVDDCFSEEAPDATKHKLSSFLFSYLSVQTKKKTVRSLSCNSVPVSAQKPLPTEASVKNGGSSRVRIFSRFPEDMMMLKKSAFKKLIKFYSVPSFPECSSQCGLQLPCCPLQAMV
Particulars: from JP-A-9-110857 and JP-A-10-59956; cited from earlier work.

Data set [2] can be described thus: Solubility in solvents of the enzyme reaction products. Format: physicochemical. The settings on record: water, methanol, DMSO.
The test system of data set [3] is enzyme producing tartaric acid ether compound. The experiment in a line: Influence of metallic ions on the action of the present enzyme. Format: biochemical, Aspergillus oryzae. Particulars: for Relative activity (%): activity with no addition = 100%; for Influence on the activity of the present enzyme (in words): presence of the ion or EDTA. As for the experimental part: "Relative activity (%)" in Table 2 is the value relative to the activity (expressed as 100) observed when no metallic ion was added.
The activity observed with no addition of metallic ions was expressed as 100%.

The test system is the same in data set [4]. The experiment in a line: Substrate specificity of the present enzyme in the presence of (±)-trans-epoxysuccinic acid. Format: biochemical, Aspergillus oryzae. The procedure: The activities of the present enzyme to the various substrate compounds having a phenolic hydroxyl group(s) shown in Table 1 in the presence of (±)-trans-epoxysuccinic acid were measured and shown as relative activities (%) with reference to the activity to genistein which was expressed as 100. The measurement of activity was conducted under the same conditions as used for the determination of titer described later.
Enzyme titer was determined by the following method. The amount of the enzyme that produces 1 μmol of 2-hydroxy-3-[[5-hydroxy-3-(4-hydroxyphenyl)-4-oxo-4H-1-benzopyran-7-yl]oxy]-butanedioic acid in one minute in the reaction of the following formula (6) is expressed as 1 U. [drawing 1]
Substrate solution I: 60 mM (±)-trans-epoxysuccinic acid (Tokyo Kasei Kogyo Co., Ltd.) was dissolved in 100 ml of a 50 mM sodium acetate-acetic acid buffer (pH 6.0), and the solution was adjusted to pH 6.0 with sodium hydroxide.
Substrate solution II: Prepared by dissolving 0.3 mmol of genistein (Funakoshi Co., Ltd.) in 100 ml of dimethyl sulfoxide.
50 mmol of sodium acetate and 40 mmol of manganese sulfate were dissolved in distilled water, and the solution was adjusted to pH 6.0 with acetic acid and made one litre.
(1) 0.175 ml of the buffer, 0.1 ml of the substrate solution I and 0.01 ml of an enzyme solution were pipetted into a microtube, and the mixed solution was preincubated at 37° C. for 5 minutes.
(2) The above solution was mixed with 0.025 ml of the substrate solution II and reacted at 37° C. for 15 minutes, after which 0.01 ml of concentrated hydrochloric acid was added to stop the reaction. Used as control was a solution prepared in the same way as described above except that 0.01 ml of the buffer was added in place of 0.01 ml of the enzyme solution.
2-hydroxy-3-[[5-hydroxy-3-(4-hydroxyphenyl)-4-oxo-4H-1-benzopyran-7-yl]oxy]-butanedioic acid produced from the reaction of the formula (6) was determined by HPLC under the following conditions: […]
Column: Wakosil-II5C18HG (4.6 mm×30 mm+4.6 mm×250 mm, mfd. by Wako Pure Chemical Industries, Ltd.).
Eluent: distilled water containing 0.05% of trifluoroacetic acid and 28.8% of acetonitrile.
Detecting wavelengh: 260 nm.

The test system is the same in data set [5]. Nature of the data set: Km value from Lineweaver-Burk's plot. Format: biochemical, Aspergillus oryzae. Particulars: compound used as substrate.

Counter-ions that a name gives are not always drawn.

As to `O=C(O)C(O)C(Oc1cc(O)c2c(=O)c(-c3ccc(O)cc3)coc2c1)C(=O)O` (single isomer, unassigned) [2-hydroxy-3-[[5-hydroxy-3-(4-hydroxyphenyl)-4-oxo-4H-1-benzopyran-7-yl]oxy]-butanedioic acid], the “Inhibitory action against histidine decarboxylase (HDC)” value (“Inhibitory action” below) in data set [1] is “prominent inhibitory action”.

Turning to `O=C(O)C(O)C(Oc1cc(O)c2c(c1)O[C@H](c1ccc(O)c(O)c1)[C@@H](O)C2=O)C(=O)O` (single isomer, unassigned) [Example 5 enzyme reaction product], the Solubility in solvents result in data set [2] is “soluble in water, methanol and DMSO”.

Turning to `[Zn+2]` [Zn^2+], in data set [3] (20 mM metallic ion), the “Relative activity (%)” value amounted to 416%. In addition, the “Influence on the activity of the present enzyme (in words)” value (“Influence on the activity” for short) in data set [3] was “enhanced”.

As to `O=C(O)C(O)C(Oc1ccc2c(=O)c(-c3ccc(O)cc3)coc2c1)C(=O)O` (single isomer, unassigned) [2-hydroxy-3-[[3-(4-hydroxyphenyl)-4-oxo-4H-1-benzopyran-7-yl]oxy]-butanedioic acid], the “Inhibitory action” value in data set [1] is reported as “prominent inhibitory action”.

`O=C(O)C(O)C(Oc1cc(O)c2c(=O)cc(-c3ccc(O)cc3)oc2c1)C(=O)O` (stereo not drawn) [Example 6 enzyme reaction product]: the Solubility in solvents entry in data set [2] is “soluble in water, methanol and DMSO”.

For `O=C(O)C(O)C(Oc1cc(O)c2c(=O)c(-c3ccc(O)cc3)coc2c1O)C(=O)O` (single isomer, unassigned) [2-[[5,8-dihydroxy-3-(4-hydroxyphenyl)-4-oxo-4H-1-benzopyran-7-yl]oxy]-3-hydroxy-butanedioic acid], the “Inhibitory action” value in data set [1] is listed as “prominent inhibitory action”.

As to `O=C(O)C(O)C(Oc1cc(O)c2c(=O)c(O)c(-c3ccc(O)cc3)oc2c1)C(=O)O` (stereo not drawn) [Example 3 enzyme reaction product I], in data set [2], the Solubility in solvents entry is “soluble in water, methanol and DMSO”.

`O=C(O)C(O)C(Oc1ccc(-c2oc3cc(OC(C(=O)O)C(O)C(=O)O)cc(O)c3c(=O)c2O)cc1)C(=O)O` (stereo not drawn) [Example 3 enzyme reaction product II]: the Solubility in solvents result in data set [2] is “soluble in water, methanol and DMSO”.

In general, Km refers to the concentration of substrate that gives half-maximal velocity. As for `O=c1c(-c2ccc(O)cc2)coc2cc(O)cc(O)c12` [genistein], the “Action of the enzyme to the phenolic hydroxyl groups of the substrate (in words)” value in data set [4] (in the presence of (±)-trans-epoxysuccinic acid) was “acts in a favorable way”. Moreover, the “Relative activity (%)” value in data set [4] (substrate in the presence of (±)-trans-epoxysuccinic acid, decrement of genistein as substrate expressed as 100) is reported as 100%. Moreover, the Michaelis constant (Km) in data set [5] stood at 1.04 mM.

With `O=C(O)CN(CCN(CC(=O)O)CC(=O)O)CC(=O)O` [EDTA, ethylenediamine-N,N,N'N'-tetraacetic acid disodium salt], in data set [3] (5 mM EDTA), the “Relative activity (%)” value was found to be 12%. Further, the “Influence on the activity” value in data set [3] is “greatly inhibited”.

For `O=C1CC(c2ccc(O)cc2)Oc2cc(OC(C(=O)O)C(O)C(=O)O)cc(O)c21` (stereo not drawn) [Example 4 enzyme reaction product I], the Solubility in solvents result in data set [2] is “soluble in water, methanol and DMSO”.

As for `[Ca+2]` [Ca^2+], the “Relative activity (%)” value in data set [3] (20 mM metallic ion) is given as 140%. The “Influence on the activity” value in data set [3] is recorded as “enhanced”.

As for `[Ni+2]` [Ni^2+], the “Relative activity (%)” value in data set [3] (20 mM metallic ion) is reported as 198%. For the same compound, the “Influence on the activity” value in data set [3] is given as “enhanced”.

For the compound `O=C(O)[C@H]1O[C@@H]1C(=O)O` (relative stereo) [(±)-trans-epoxysuccinic acid], in data set [5], the Km was 2.58 mM.

Consider `O=C1C(=Cc2ccc(O)c(O)c2)Oc2cc(OC(C(=O)O)C(O)C(=O)O)ccc21` (stereo not drawn) [Example 2 enzyme reaction product], for which, in data set [2], the Solubility in solvents result is “soluble in water, methanol and DMSO”.

Regarding `[Cu+2]` [Cu^2+], in data set [3] (20 mM metallic ion), the “Relative activity (%)” value is given as 0%. In addition, the “Influence on the activity” value in data set [3] is “greatly inhibited”.

On to `O=C1CC(c2ccc(OC(C(=O)O)C(O)C(=O)O)cc2)Oc2cc(OC(C(=O)O)C(O)C(=O)O)cc(O)c21` (stereo not drawn) [Example 4 enzyme reaction product II], for which, in data set [2], the Solubility in solvents entry is “soluble in water, methanol and DMSO”.
